Source: patent US10065945B2, “Isoquinoline derivatives as MGAT2 inhibitors” (Merck Sharp & Dohme Corp., priority 2014, dated 2018)

What follows are molecules tested against MGAT2 Human (Homo sapiens (Human), UniProt Q3SYC2) (assay: MGAT2 Human IC50).
Type: biochemical

MGAT2 Human, sequence (Q3SYC2 whole entry): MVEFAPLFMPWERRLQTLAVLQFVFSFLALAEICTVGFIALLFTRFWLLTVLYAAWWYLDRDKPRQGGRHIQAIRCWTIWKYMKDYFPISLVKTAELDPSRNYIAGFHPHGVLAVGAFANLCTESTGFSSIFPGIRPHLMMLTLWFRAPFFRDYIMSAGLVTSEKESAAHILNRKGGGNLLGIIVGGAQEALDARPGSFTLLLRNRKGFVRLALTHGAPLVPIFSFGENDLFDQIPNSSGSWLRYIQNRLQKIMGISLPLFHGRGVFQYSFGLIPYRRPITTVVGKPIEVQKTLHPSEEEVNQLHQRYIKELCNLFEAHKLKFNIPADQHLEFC

Structure (SMILES) | IC50
C[C@H](c1cc(F)cc(F)c1)N1CCc2ccc(S(=O)(=O)Nc3nc(C(=O)NCC(F)(F)F)no3)cc2C1 [Example 54] | 16 nM
C[C@H](c1cc(F)cc(F)c1)N1CCc2ccc(S(=O)(=O)Nc3nc(C(=O)N4CCC4)no3)cc2C1 [Example 55] | 3.7 nM
C[C@H](c1cc(F)cc(F)c1)N1CCc2ccc(S(=O)(=O)Nc3nc(C(=O)N(C)C)no3)cc2C1 [Example 56] | 5.7 nM
